Assay results taken from patent US20110136876A1, “Altering Pharmacokinetics of Pirfenidone Therapy” (INTERMUNE, INC., priority 2007, published 2011).
Where two headings read alike, the source gives them in different places.

What was measured:
[1] = Single dose study: adverse events with food, antacid, or food plus antacid; assay type: in vivo, human; conditions: for dizziness incidence / nausea incidence / somnolence incidence / headache incidence: of 16 subjects
Method: (§1) A study was designed to evaluate the effect of food, antacids, and food taken with antacids on adverse events associated with pirfenidone use. The trial was conducted as a randomized, open-label, four-treatment crossover, with a single dose for each treatment period and a 2-day washout period between study treatments. 16 healthy adults between the ages of 50 and 79 years having body mass indices between 18 and 30 (inclusive) were enrolled and completed all 4 treatment arms. The treatment arms were as follows:
(§2) A) pirfenidone alone (Fasted);
(§3) B) pirfenidone within 1 minute following a dose of antacid (20 mL Mylanta® Maximum Strength Liquid) (Fasted+Antacid);
(§4) C) pirfenidone 5 minutes after completing a standard meal (Fed); and
(§5) D) pirfenidone 5 minutes after completing a standard meal, then within 1 minute, followed by a dose of antacid (Fed+Antacid).
(§6) All subjects were admitted to the clinic for clinical evaluation the day prior to receiving the first dose of the study medication and remained confined for 13 days. Following an overnight fast of at least 10 hours (h), subjects were randomized to one of the above-described 4 treatment sequences. Each dose of pirfenidone (3×267 mg capsules) was administered orally with 240 mL room temperature water on days 1, 4, 7, and 10 in the morning, following an overnight fast of at least 10 hours. The washout period between treatments was 2 days. A standard meal consisted of 2 fried eggs, 2 strips of bacon, 2 slices of toast, 2 pats of butter, hash brown potatoes (4 oz), and whole milk (8 oz).
On each study day, adverse events were reviewed with the patients as follows. Before administration of the first dose of the study drug, study site personnel noted the occurrence and nature of each subject's medical condition(s). During the trial, site personnel again noted any change in the condition(s) or occurrence and nature of any adverse events. The severity of adverse events were graded based on the Modified Common Toxicity Criteria and the relationship of the study drug to the adverse event determined.

[2] = Multiple dose study: adverse events on multiple ascending daily doses taken with food; assay type: in vivo, human
Method: A second study was designed to examine incidences of adverse events on multiple ascending daily doses of pirfenidone. The trial was conducted as an open-label, escalating-dose study with no washout period between dose escalations. 25 healthy adults between the ages of 45 and 79 (inclusive) having body mass indices between 18 and 30 (inclusive) were enrolled. 22 adults completed the treatment. Each volunteer received from 801 mg/day to 4005 mg/day of pirfenidone divided into three equal doses as follows:
Days 1-2: 1 capsule three times a day (TID) (801 mg total daily dose (TDD))
Day 3: 1 capsule in the morning (0800) (267 mg TDD)
Days 4-5: 2 capsules TID (1602 mg TDD)
Day 6: 2 capsules in the morning (534 mg TDD)
Days 7-8: 3 capsules TID (2403 mg TDD)
Day 9: 3 capsules in the morning (801 mg TDD)
Day 12: 4 capsules in the morning (1068 mg TDD)
Day 15: 5 capsules in the morning (1335 mg TDD)
All subjects were admitted to the clinic for clinical evaluation the day before the first dose of study medication and remained confined for 17 days. Each subject received all dose levels of the study drug unless adverse events or the clinical judgment of the trial physician precluded the continuation of treatment. All doses were taken with 240 mL room temperature water and with food (excluding grapefruit juice). TID doses times were ˜0800, ˜1200, and ˜1800.

[3] = Single dose study: pharmacokinetics of pirfenidone, fasted versus fed; assay type: in vivo; conditions: human, plasma, 801 mg; for half-life: oral, read-out: mean absorption half life (t1/2, abs) (converted)
Method: as §1, §2, §3, §4, §5, §6
Of 7 subjects who reported nausea, 5 of 16 (31%) were fasted compared to only 2 of 16 (13%) fed subjects. Of 5 subjects reporting dizziness, 4 of 16 (25%) were fasted, while only 1 of 16 (6%) was fed. Of 3 subjects reporting somnolence, 2 of 16 (13%) were fasted and 1 of 16 (6%) were fed. Of 3 subjects reporting headaches, 2 of 16 (13%) were fasted and 1 of 16 (6%) were fed.

[4] = 801 to 4005 mg/day TID with food, of 25 subjects

## Cc1ccc(=O)n(-c2ccccc2)c1 [pirfenidone, 5-methyl-1-phenyl-2-(1H)-pyridone]
[1]; all treatment arms
  dizziness incidence: 38%
  nausea incidence: 44%
  somnolence incidence: 25%
[1]; fasted
  dizziness incidence: 25%
  headache incidence: 13%
  nausea incidence: 31%
  somnolence incidence: 13%
[1]; fed
  dizziness incidence: 6%
  headache incidence: 6%
  nausea incidence: 13%
  somnolence incidence: 6%
[1]; in total, all treatment arms, 16 subjects
  subjects with at least 1 adverse event: 75%
[1]; of the 12 subjects with at least 1 adverse event
  subjects with adverse events whose adverse events were mild: 75%
[1]; with food (Fed), 16 subjects
  subjects who experienced an adverse event: 31.3%
[1]; with food and antacid (Fed+Antacid), 16 subjects
  subjects who experienced an adverse event: 25%
[1]; within 1 minute following a dose of antacid (Fasted+Antacid), 16 subjects
  subjects who experienced an adverse event: 56.3%
[1]; without food (Fasted), 16 subjects
  subjects who experienced an adverse event: 56.3%
[2]; 801 to 4005 mg/day TID with food, 25 subjects
  subjects with at least one adverse event: 92%
[2]; [4]
  headache incidence: 28%
  nausea incidence: 36%
  somnolence incidence: 32%
[2]; of the 23 subjects with at least one adverse event
  subjects with adverse events whose adverse events were mild: 96%
[3]; with food (fed)
  half-life: ~1.78 h
[3]; without food (fasted)
  half-life: ~0.572 h
[3]; po, fasted (without food), single oral dose 3x267 mg capsules, healthy adults
  Cmax: 15700 ng/mL
[3]; po, fasted, single oral dose 3x267 mg capsules
  AUC: 72700 ng·h/mL
[3]; po, fed, single oral dose 3x267 mg capsules
  AUC: 64600 ng·h/mL
